# Assay results reported in US6844358B2, “Phenyl oxo-acetic acids useful in the treatment of insulin resistance and hyperglycemia” (Wyeth, priority 1998, dated 2005).
# Like-named read-outs stand apart in the source and are kept apart here.
# Key:
# [1] = molecular target: T1, Human recombinant PTP1B (hPTP1B) (Homo sapiens, UniProt P18031); format: biochemical; settings: hPTP1B
# T1 construct: made in house
# T1 sequence (P18031 1-435): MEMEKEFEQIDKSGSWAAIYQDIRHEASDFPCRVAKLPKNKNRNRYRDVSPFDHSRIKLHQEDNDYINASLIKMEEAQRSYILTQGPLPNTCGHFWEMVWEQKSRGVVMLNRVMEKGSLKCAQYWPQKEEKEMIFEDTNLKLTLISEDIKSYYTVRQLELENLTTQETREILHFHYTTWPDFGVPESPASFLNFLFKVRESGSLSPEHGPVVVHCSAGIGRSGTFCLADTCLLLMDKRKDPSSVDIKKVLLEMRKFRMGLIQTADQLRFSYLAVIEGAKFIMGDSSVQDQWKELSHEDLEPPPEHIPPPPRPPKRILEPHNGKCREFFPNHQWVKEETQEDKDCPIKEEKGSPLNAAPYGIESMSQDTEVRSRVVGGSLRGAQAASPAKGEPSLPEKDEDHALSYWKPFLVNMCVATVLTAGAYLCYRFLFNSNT
# [2] = molecular target: rat hepatic microsomal PTPases; settings: rat hepatic microsomal PTPase; for IC50: dodecaphosphopeptide substrate 50 uM; for % Change from Control at 50 μM: 50 μM compound
# [3] = molecular target: T2, recombinant rat protein tyrosine phosphatase, PTP1B (rPTP1B) (Rattus norvegicus, UniProt P20417); format: biochemical; settings: rPTP1B; for % change from control at 10 μM: 10 μM compound; for IC50: read-out: IC50
# T2 sequence (P20417 1-432): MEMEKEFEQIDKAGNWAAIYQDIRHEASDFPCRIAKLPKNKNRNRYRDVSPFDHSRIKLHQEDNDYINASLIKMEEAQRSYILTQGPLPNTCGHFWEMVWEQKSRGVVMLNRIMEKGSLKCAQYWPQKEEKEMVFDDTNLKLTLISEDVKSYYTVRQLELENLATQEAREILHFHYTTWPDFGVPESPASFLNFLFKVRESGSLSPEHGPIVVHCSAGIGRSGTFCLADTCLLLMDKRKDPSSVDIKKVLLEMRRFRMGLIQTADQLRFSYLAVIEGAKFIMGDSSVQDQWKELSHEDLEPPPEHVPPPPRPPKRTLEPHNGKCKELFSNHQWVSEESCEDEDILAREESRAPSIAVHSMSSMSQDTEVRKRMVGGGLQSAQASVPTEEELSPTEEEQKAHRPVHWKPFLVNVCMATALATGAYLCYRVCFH
# diabetic (ob/ob) mice = assay: Blood glucose lowering activity in diabetic (ob/ob) mice; format: in vivo; settings: Mus musculus, po
# Protocol: The procedures used and results obtained are briefly described below. […]
# In each test procedure, mice [Male or female ob/ob (C57 B1/6J) and their lean litermates (ob/+ or +/+, Jackson Laboratories) ages 2 to 5 months (10 to 65 g)] of a similar age were randomized according to body weight into 4 groups of 10 mice. The mice were housed 5 per cage and are maintained on normal rodent chow with water ad libitum. Mice received test compound daily by gavage (suspended in 0.5 ml of 0.5% methyl cellulose); dissolved in the drinking water; or admixed in the diet. The dose of compounds given ranges from 2.5 to 200 mg/kg body weight/day. The dose is calculated based on the fed weekly body weight and is expressed as active moiety. […] Control mice received vehicle only.
# On the morning of Day 4, 7 or 14 two drops of blood (approximetly 50 ul) were collected into sodium fluoride containing tubes either from the tail vein or after decapitation. For those studies in which the compound was administered daily by gavage the blood samples were collected two hours after compound administration. […]
# Analysis of variance followed by Dunett's Comparison Test (one-tailed) are used to estimate the significant difference between the plasma glucose values from the control group and the individual compound treated groups (CMS SAS Release 5.18).
# [4] = system: Human recombinant PTP1B (hPTP1B); format: biochemical
# [5] = 96 h, plasma glucose on Day 4, 7 or 14, suffix a = no significant activity at this dose, read-out: % Change Glucose from Vehicle
# [6] = suffix a = no significant activity at this dose, read-out: % Change Insulin from Vehicle
IC50 [1],melting point,IC50 [2],% change from control at 10 μM [3],% Change from Control at 50 μM [2],IC50 [3],"% change from control at 10 μM ([4]; reference standards, enzyme form (rPTP1B/hPTP1B) not given)",Compound,change in vivo at 100 mg/kg (diabetic (ob/ob) mice; [5]),change in vivo at 100 mg/kg (diabetic (ob/ob) mice; [6]),% change from control at 10 μM [4]
1.4 µM,118 to 119 °C,22.7 µM,−99 (rPTP1B) %,,,,CCCCc1oc2ccccc2c1Cc1cc(Br)c(OCC(=O)O)c(Br)c1 [Example 7],-29.4%,-13.1%,
1.15 µM,56 to 58 °C,,,−77%,,,"CCCCc1oc2ccccc2c1C(=O)c1cc(Br)c(O[C@H](Cc2ccccc2)C(=O)O)c(Br)c1 [Example 22, (R)-2-[2,6-dibromo-4-(2-butyl-benzofuran-3-carbonyl)-phenoxy]-3-phenyl-propionic acid]",,,
0.87 µM,225 to 226 °C,,,−85%,,,"CCCCc1oc2ccccc2c1Cc1cc(Br)c(O[C@H](Cc2ccccc2)C(=O)O)c(Br)c1 [Example 23, (R)-2-[2,6-dibromo-4-(2-butyl-benzofuran-3-ylmethyl)-phenoxy]-3-phenyl-propionic acid]",,,
,,,,,,,"[Na+].[Na+].[Na+].[O]=[V]([O-])([O-])[O-] [Sodium orthovanadate, reference compound]",,,244.8%
1.94 µM,155.5 to 156.5 °C,33.9 µM,,,3.97 µM,,"O=C(c1cc(Br)c(O)c(Br)c1)c1c(Cc2ccccc2)sc2ccccc12 [Example 11, (2-Benzyl-benzo[b]thiophen-3-yl)-(3,5-dibromo-4-hydroxy-phenyl)-methanone]",-30.3%,-53.2%,
,135 to 137 °C,,−30 (rPTP1B) %,−25%,,,"CCc1oc2ccccc2c1C(=O)c1cc(Br)c(OCC(=O)O)c(Br)c1 [Example 2, [2,6-dibromo-4-(2-ethyl-benzofuran-3-carbonyl)-phenoxy]-acetic acid]",-48.1%,-78.2%,
,87 to 88 °C,,−74 (rPTP1B) %,−34%,,,"CCc1oc2ccccc2c1Cc1cc(Br)c(O)c(Br)c1 [Example 3, 2,6-Dibromo-4-(2-ethyl-benzofuran-3-yl-methyl)-phenol]",-6.2%,-56.6%,
,162 to 163 °C,27.8 µM,−88 (rPTP1B) %,,,,"O=C(O)COc1c(Br)cc(C(=O)c2c(Cc3ccccc3)sc3ccccc23)cc1Br [Example 12, [4-(2-Benzyl-benzo[b]thiophen-3-carbonyl)-2,6-dibromo-phenoxy]-acetic acid]",-30.7%,-60.7%,
,92 to 94 °C,31.2 µM,−78 (rPTP1B) %,,,,"CCCCc1oc2ccccc2c1C(=O)c1cc(Br)c(OCC(=O)O)c(Br)c1 [Example 5, [2,6-Dibromo-4-(2-butyl-benzofuran-3-carbonyl)-phenoxy]-acetic acid]",-20.1%,-54.8%,
,165 to 167 °C,36 µM,−75 (rPTP1B) %,,,,"O=C(O)COc1c(Br)cc(C(=O)c2c(Cc3ccccc3)oc3ccccc23)cc1Br [Example 10, [4-(2-Benzyl-benzofuran-3-carbonyl)-2,6-dibromo-phenoxy]-acetic acid]",-17.7%,-70%,
,156 to 158 °C,27.8 µM,−81 (rPTP1B) %,,,,"O=C(c1cc(Br)c(O)c(Br)c1)c1c(Cc2ccccc2)oc2ccccc12 [Example 14, (2-Benzyl-benzofuran-3-yl)-(3,5-dibromo-4-hydroxy-phenyl)-methanone]",-36.8%,-40.7%,
,153 to 154 °C,20.5 µM,,,2.6 µM,,"O=C(c1cc(Br)c(O)c(Br)c1)c1c(CCc2ccccc2)oc2ccccc12 [Example 15, (3,5-Dibromo-4-hydroxy-phenyl)-(2-phenethyl-benzofuran-3-yl)-methanone]",-32.8%,-10.3%,
2.6 µM,,15.3 µM,,,0.19 µM,,"CCCCc1oc2ccccc2c1C(=O)c1cc(I)c(O)c(I)c1 [Example 16, (2-Butyl-benzofuran-3-yl)-(4-hydroxy-3,5-diiodo-phenyl)-methanone]",-51.8%,-73.7%,
,,,,,,8.7%,Ammonium molybdate tetrahydrate [reference compound],,,
